Counter-ions that a name gives are not always drawn.
What was measured:
Assay type in all cases: cell-based
[1] = target: T1, human EDG8 (S1PR5) receptor (Homo sapiens, UniProt Q9H228); assay: Aequorin assay, agonist potency, CHO-A21-EDG8#12 cells; conditions: agonist mode, aequorin luminescence; read-out: S1P5 EC50 range #
T1 construct: carries the transgenes human EDG8 (S1PR5) receptor (Acession number NP_110387.1); expressed in transfected cells; host or cells: CHO-A21-EDG8#12 (CHO clone co-expressing mitochondrial aequorin and chimaeric Gaqi5)
In short: (§1)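 CHO cells coexpressing receptor, mitochondrial aequorin and Gαqi5 (S1P3 pool: GNA16) were loaded overnight at RT with 5 μM coelenterazine h in 0.1% fatty-acid-free BSA buffer. Cells were injected onto compound, luminescence recorded 90 s and integrated, normalised to digitonin or 20 μM ATP; sigmoidal fit.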

[2] = target: T2, human EDG3 (S1PR3) receptor (Homo sapiens, UniProt Q99500); assay: Aequorin assay, agonist potency, CHO-A2-S1P3 Mix cells; conditions: agonist mode, aequorin luminescence
T2 construct: expressed in transfected cells; host or cells: CHO-A2-S1P3 Mix (CHO cell pool co-expressing mitochondrial aequorin and GNA16)
Method: Agonistic activity was measured as described below.
Cell clone CHO-A21-Edg1#17 carries the transgenes human EDG1 (S1PR1) receptor (Accession number NP_001391.2), mitochondrially targeted Aequorin (active part corresponds to accession number 1SL8_A) and chimaeric Gaqi5=Gaq modified with the 5 C-terminal amino-acids replaced with those of the Gai protein (DCGLF). CHO-A2-S1P3 Mix is a cell pool ectopically expressing human EDG3 (S1PR3) receptor (Accession number NP_005217.2) mitochondrially targeted Aequorin (active part has a sequence similar to accession number AY601106.1) and GNA16 (Accession number NP_002059.3). Cell clone CHO-A21-EDG8#12 carries the transgenes human EDG8 (S1PR5) receptor (Acession number NP_110387.1), mitochondrially expressed Aequorin (active part corresponds to accession number 1SL8_A) and chimaeric Gaqi5 (Gaq modified to present the 5 last amino-acids of the Gai protein “DCGLF”; see above). Cells are grown to mid-log phase in culture medium (HAM's F12, 10% FBS, 100 IU/mL penicillin, 100 μg/mL streptomycin, 250 μg/mL Zeocin, 400 μg/mL G418). 18 hours prior to frozen cells preparation, the medium is changed to remove the antibiotics.
18 hours prior to the test, vials of frozen cells are quickly thawed in a 37° C. water bath, cells are recovered by centrifugation and resuspended in assay buffer (DMEM/HAM's F12 with HEPES, without phenol red+0.1% fatty acid-free BSA). Cells are gently agitated in suspension overnight at RT in presence of 5 μM of Coelenterazine h (Molecular Probes). On the day of the test, cells are diluted to their final working concentrations in assay buffer and agitated in suspension for 1 h at RT. Cells are then placed in the luminescence reader (Hamamatsu Functional Drug Screening System 6000, FDSS6000). During cells incubation, compounds are prepared in 100% DMSO, and subsequently diluted in assay buffer. Compounds are then dispensed in the assay plate (black, clear-bottom, 384-well plate). After binding of agonists to the human S1P receptor the intracellular calcium concentration increases and binding of calcium to the Aequorin/Coelenterazine complex leads to an oxidation reaction of coelenterazine, which results in the production of Aequorin, coelenteramide, CO2 and light (Dmax 469 nm). The luminescent response is dependent on the agonist concentration. For agonist testing, 30 μL of cell suspension are injected on 30 μL of test compound or reference agonist in the assay plate. The resulting emission of light is recorded for 90 seconds using the FDSS6000. Dose response curves with the reference compounds are performed before testing the compounds. S1P is the reference agonist and JTE-013 the reference antagonist for S1P2.
Luminescence data are integrated over the reading interval for agonist and antagonist modes. To standardize the emission of recorded light (determination of the “100% signal”) across plates and across different experiments, some of the wells contain 100 μM digitonin or a saturating concentration of ATP (20 μM). Plates also contain the reference agonist at a concentration equivalent to the EC80 obtained during the test validation and the EC100. Dose-response data from test compounds were analyzed with XLfit (IDBS) software using nonlinear regression applied to a sigmoidal dose-response model and the following equation: […]

S1P4 = target: T3, S1P4 (Homo sapiens, UniProt O95977); assay: Aequorin assay, agonist potency, S1P4; conditions: agonist mode, aequorin luminescence
T3 sequence (O95977 1-384): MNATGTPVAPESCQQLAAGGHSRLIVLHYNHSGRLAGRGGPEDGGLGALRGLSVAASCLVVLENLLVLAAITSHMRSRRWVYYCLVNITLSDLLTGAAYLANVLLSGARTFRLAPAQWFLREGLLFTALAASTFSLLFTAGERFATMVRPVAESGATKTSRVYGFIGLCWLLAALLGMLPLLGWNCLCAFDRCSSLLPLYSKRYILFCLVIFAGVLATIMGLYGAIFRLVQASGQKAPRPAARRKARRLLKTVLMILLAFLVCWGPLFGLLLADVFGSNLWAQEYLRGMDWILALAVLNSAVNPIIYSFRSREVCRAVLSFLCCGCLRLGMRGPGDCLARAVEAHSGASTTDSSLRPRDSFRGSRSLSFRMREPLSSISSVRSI
In short: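 Aequorin luminescence read over 90 s after adding coelenterazine h–loaded cells (5 μM, overnight, RT) to test compound in phenol red-free DMEM/F12 buffer containing 0.1% fatty acid-free BSA. Responses integrated, scaled to the 100% signal from 100 μM digitonin or 20 μM ATP, and fitted to a sigmoidal dose-response model.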

[3] = target: T4, human EDG1 (S1PR1) receptor (Homo sapiens, UniProt P21453); assay: Aequorin assay, agonist potency, CHO-A21-Edg1#17 cells; conditions: agonist mode, aequorin luminescence; read-out: S1P1 EC50
T4 construct: expressed in transfected cells; host or cells: CHO-A21-Edg1#17 (CHO clone co-expressing mitochondrial aequorin and chimaeric Gaqi5)
In short: as §1

T4 sequence (P21453 whole entry): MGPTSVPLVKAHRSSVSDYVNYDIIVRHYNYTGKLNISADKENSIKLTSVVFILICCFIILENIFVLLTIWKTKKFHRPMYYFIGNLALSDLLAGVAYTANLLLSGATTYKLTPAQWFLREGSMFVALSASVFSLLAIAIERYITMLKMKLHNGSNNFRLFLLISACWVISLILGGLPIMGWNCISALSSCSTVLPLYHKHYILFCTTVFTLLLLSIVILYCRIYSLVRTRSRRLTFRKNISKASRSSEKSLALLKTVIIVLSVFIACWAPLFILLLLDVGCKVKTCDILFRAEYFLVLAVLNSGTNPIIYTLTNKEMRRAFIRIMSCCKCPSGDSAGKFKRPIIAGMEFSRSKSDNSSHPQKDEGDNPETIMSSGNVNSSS
T1 sequence (Q9H228 whole entry): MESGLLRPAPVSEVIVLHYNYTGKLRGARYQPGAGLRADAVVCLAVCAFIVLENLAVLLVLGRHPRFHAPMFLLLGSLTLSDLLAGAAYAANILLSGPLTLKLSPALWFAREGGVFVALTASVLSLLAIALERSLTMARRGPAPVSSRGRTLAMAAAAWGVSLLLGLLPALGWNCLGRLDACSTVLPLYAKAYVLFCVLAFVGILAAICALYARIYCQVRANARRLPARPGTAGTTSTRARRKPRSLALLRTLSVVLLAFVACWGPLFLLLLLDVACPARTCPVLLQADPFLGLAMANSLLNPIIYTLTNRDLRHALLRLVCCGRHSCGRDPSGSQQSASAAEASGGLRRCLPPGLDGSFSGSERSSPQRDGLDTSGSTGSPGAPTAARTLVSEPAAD
T2 sequence (Q99500 whole entry): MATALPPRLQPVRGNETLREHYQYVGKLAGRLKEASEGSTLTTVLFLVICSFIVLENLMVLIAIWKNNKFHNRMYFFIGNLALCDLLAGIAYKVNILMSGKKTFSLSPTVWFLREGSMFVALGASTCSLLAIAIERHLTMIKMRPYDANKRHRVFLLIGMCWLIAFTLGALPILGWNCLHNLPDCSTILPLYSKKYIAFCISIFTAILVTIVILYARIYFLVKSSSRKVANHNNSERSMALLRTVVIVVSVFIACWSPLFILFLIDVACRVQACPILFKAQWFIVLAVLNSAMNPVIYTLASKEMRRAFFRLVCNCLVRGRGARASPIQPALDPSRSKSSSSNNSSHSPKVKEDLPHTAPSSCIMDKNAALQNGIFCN

SMILES	EC50 [1]	EC50 [2]	EC50 (S1P4)	EC50 [3]
O=C(O)CCN1CC2(Cc3ccc(OCc4ccccc4)cc3C2)C1 [Example 6, 3-(5′-(benzyloxy)-1′,3′-dihydrospiro[azetidine-3,2′-inden]-1-yl)propanoic acid hydrochloride]	1000 to 10000 nM	> 1000 nM	< 1000 nM	> 1000 nM
O=C(O)CN1CC2(Cc3ccc(OCc4ccccc4)cc3C2)C1 [Example 8, 2-(5′-(benzyloxy)-1′,3′-dihydrospiro[azetidine-3,2′-inden]-1-yl)acetic acid]	100 to 1000 nM	> 1000 nM	< 1000 nM	> 1000 nM
O=C(O)CN1CC2(Cc3ccc(OCc4ccc(Cl)cc4)cc3C2)C1 [Example 11, 2-(5′-((4-chlorobenzyl)oxy)-1′,3′-dihydrospiro[azetidine-3,2′-inden]-1-yl)acetic acid]	1000 to 10000 nM	> 1000 nM	< 1000 nM	> 1000 nM
O=C(O)CN1CC2(Cc3ccc(OCc4cc(F)cc(F)c4)cc3C2)C1 [Example 14, 2-(5′-((3,5-difluorobenzyl)oxy)-1′,3′-dihydrospiro[azetidine-3,2′-inden]-1-yl)acetic acid]	10 to 100 nM	> 1000 nM	< 1000 nM	> 1000 nM
O=C(O)CN1CC2(Cc3ccc(OCc4ccc(Cl)c(Cl)c4)cc3C2)C1 [Example 25, 2,2,2-trifluoroacetic acid compound with 2-(5′-((3,4-dichlorobenzyl)oxy)-1′,3′-dihydrospiro[azetidine-3,2′-inden]-1-yl)acetic acid (1:1)]	10 to 100 nM	> 1000 nM	< 1000 nM	> 1000 nM
CCOc1ccc(C#Cc2ccc3c(c2)OC2(C3)CN(CC(=O)O)C2)cc1 [Example 154, 2-(6′-((4-ethoxyphenyl)ethynyl)-3′H-spiro[azetidine-3,2′-benzofuran]-1-yl)acetic acid]	10 to 100 nM	–	> 1000 nM	< 1000 nM
CC1CCC(C#Cc2ccc3c(c2)OC2(C3)CN(CC(=O)O)C2)CC1 (centres unmarked) [Example 155, 2-(6′-((4-methylcyclohexyl)ethynyl)-3′H-spiro[azetidine-3,2′-benzofuran]-1-yl)acetic acid]	100 to 1000 nM	–	< 1000 nM	> 1000 nM
CCc1cccc(Cl)c1COc1ccc2c(c1)OC1(C2)CN(CC2(C(=O)O)CC2)C1 [Example 156, 1-((6′-((2-chloro-6-ethylbenzyl)oxy)-3′H-spiro[azetidine-3,2′-benzofuran]-1-yl)methyl)cyclopropanecarboxylic acid]	≤ 10 nM	–	< 1000 nM	> 1000 nM
CCc1cccc(Cl)c1COc1ccc2c(c1)OC1(C2)CN(CC(C)CC(=O)O)C1 (centres unmarked) [Example 157, 4-(6′-((2-chloro-6-ethylbenzyl)oxy)-3′H-spiro[azetidine-3,2′-benzofuran]-1-yl)-3-methylbutanoic acid]	≤ 10 nM	–	< 1000 nM	> 1000 nM
CCc1cccc(Cl)c1COc1ccc2c(c1)OC1(C2)CN(CC(=O)O)C1 [Example 158, 2-(6′-((2-chloro-6-ethylbenzyl)oxy)-3′H-spiro[azetidine-3,2′-benzofuran]-1-yl)acetic acid]	≤ 10 nM	–	< 1000 nM	< 1000 nM

Results, then the compound that gave them:

EC50 [1]	EC50 [2]	EC50 (S1P4)	EC50 [3]	SMILES
≤ 10 nM	> 1000 nM	< 1000 nM	> 1000 nM	CCc1cccc(Cl)c1COc1ccc2c(c1)CC1(C2)CN(CCC(=O)O)C1 [Example 7, 3-(5′-((2-chloro-6-ethylbenzyl)oxy)-1′,3′-dihydrospiro[azetidine-3,2′-inden]-1-yl)propanoic acid hydrochloride]
≤ 10 nM	> 1000 nM	< 1000 nM	> 1000 nM	O=C(O)CN1CC2(Cc3ccc(OCc4c(Cl)cccc4C4CC4)cc3C2)C1 [Example 15, 2-(5′-((2-chloro-6-cyclopropylbenzyl)oxy)-1′,3′-dihydrospiro[azetidine-3,2′-inden]-1-yl)acetic acid]
≤ 10 nM	> 1000 nM	< 1000 nM	> 1000 nM	O=C(O)CN1CC2(Cc3ccc(OCc4cccc(Cl)c4)cc3C2)C1 [Example 16, 2-(5′-((3-chlorobenzyl)oxy)-1′,3′-dihydrospiro[azetidine-3,2′-inden]-1-yl)acetic acid compound with acetic acid (1:1)]
≤ 10 nM	> 1000 nM	< 1000 nM	> 1000 nM	O=C(O)CN1CC2(Cc3ccc(OCc4cc(Cl)ccc4Cl)cc3C2)C1 [Example 23, 2,2,2-trifluoroacetic acid compound with 2-(5′-((2,5-dichlorobenzyl)oxy)-1′,3′-dihydrospiro[azetidine-3,2′-inden]-1-yl)acetic acid (1:1)]
≤ 10 nM	> 1000 nM	< 1000 nM	> 1000 nM	CCc1cccc(Cl)c1COc1ccc2c(c1)CC1(C2)CN(CC(=O)O)C1 [Example 24, 2,2,2-trifluoroacetic acid compound with 2-(5′-((2-chloro-6-ethylbenzyl)oxy)-1′,3′-dihydrospiro[azetidine-3,2′-inden]-1-yl)acetic acid (1:1)]
≤ 10 nM	> 1000 nM	< 1000 nM	> 1000 nM	CCc1cccc(Cl)c1COc1ccc2c(c1)CC1(C2)CN(CC2(C(=O)O)CC2)C1 [Example 28, 1-((5′-((2-chloro-6-ethylbenzyl)oxy)-1′,3′-dihydrospiro[azetidine-3,2′-inden]-1-yl)methyl)cyclopropanecarboxylic acid]
≤ 10 nM	> 1000 nM	< 1000 nM	–	CCc1cccc(Cl)c1COc1ccc2c(c1)CC1(C2)CN(CC(C)CC(=O)O)C1 (centres unmarked) [Example 64, 4-(5′-((2-chloro-6-ethylbenzyl)oxy)-1′,3′-dihydrospiro[azetidine-3,2′-inden]-1-yl)-3-methylbutanoic acid]
≤ 10 nM	–	< 1000 nM	> 1000 nM	O=C(O)CN1CC2(Cc3ccc(C#Cc4ccccc4Cl)cc3O2)C1 [Example 153, 2-(6′-((2-chlorophenyl)ethynyl)-3′H-spiro[azetidine-3,2′-benzofuran]-1-yl)acetic acid]
